Assay results reported in patent US8889621B2, “Inhibiting binding of FGF23 to the binary FGFR-Klotho complex for the treatment of hypophosphatemia” (New York University, priority 2009, dated 2014).
Like-named read-outs stand apart in the source and are kept apart here. Peptide text beside a SMILES is read from it.

Tested on: opossum kidney cell line OKP
Format: cell-based
Details: for effect on phosphate uptake when applied alone: 500 nM
Source text: The effects of FGF23 proteins/peptides on sodium-coupled phosphate uptake were studied in the opossum kidney cell line OKP (Miyauchi et al., “Stimulation of transient elevations in cytosolic Ca2+ is related to inhibition of Pi transport in OK cells,” Am J Physiol 259(3 Pt 2):[…]-493 (1990), which is hereby incorporated by reference in its entirety). The cell line has many characteristics of renal proximal tubule epithelium, including sodium gradient-dependent phosphate transport and sensitivity to parathyroid hormone (Miyauchi et al., “Stimulation of transient elevations in cytosolic Ca2+ is related to inhibition of Pi transport in OK cells,” Am J Physiol 259(3 Pt 2):[…]-493 (1990), which is hereby incorporated by reference in its entirety). OKP cells also express FGFR1-4 and Klotho (see next methods section). OKP cells were grown in culture as described previously (Hu et al., “Dopamine Acutely Stimulates Na+/H+ Exchanger (NHE3) Endocytosis Via Clathrin-coated Vesicles: Dependence on Protein Kinase A-mediated NHE3 Phosphorylation,” J Biol Chem 276(29):26906-26915 (2001), which is hereby incorporated by reference in its entirety). Cells grown in 24-well plates were stimulated for 4 h with FGF23^28-251 (0.5 to 1 nM), FGF23^180-251 (500 nM), FGF23^180-205 (500 nM), or mixtures of FGF23^28-251 (1 nM) with either FGF23^180-251 (1 to 500 nM) or FGF23^180-205 (1 to 500 nM). The 1 nM concentration of FGF23^28-251 was chosen for competition experiments with FGF23 C-terminal peptides because at this concentration, half-maximum inhibition of phosphate uptake is reached. After stimulation, the cells were rinsed with Na^+-free solution followed by 5 min incubation with uptake solution containing 100 μM KH2^32PO4 (2 mCi/ml, Perkin Elmer). The reaction was stopped by aspiration of uptake solution and washing cells with ice-cold stop solution (10 mM HEPES pH 7.4, 140 mM NaCl, 1 mM MgCl2). Each transport reaction was performed in triplicates.

| IC50 (4 h) | IC50 (4 h stimulation, read-out: concentration at which half-maximum inhibition of phosphate uptake is reached) | Molecule | effect on phosphate uptake when applied alone (4 h) | antagonism of FGF23 inhibition of phosphate uptake (FGF23^28-251 1 nM, 4 h stimulation) |
| --- | --- | --- | --- | --- |
| 100 to 500 nM |  | CSCC[C@H](NC(=O)[C@H](CCCNC(=N)N)NC(=O)[C@H](C)NC(=O)[C@H](CCCNC(=N)N)NC(=O)[C@@H]1CCCN1C(=O)[C@H](CCCCN)NC(=O)[C@H](CC(C)C)NC(=O)[C@@H](NC(=O)[C@H](CC(N)=O)NC(=O)[C@H](CC(C)C)NC(=O)[C@@H]1CCCN1C(=O)[C@H](CC(=O)O)NC(=O)[C@H](CCCNC(=N)N)NC(=O)[C@H](CCC(=O)O)NC(=O)[C@H](CO)NC(=O)[C@H](CC(=O)O)NC(=O)[C@H](CC(=O)O)NC(=O)[C@H](CCC(=O)O)NC(=O)[C@H](C)NC(=O)[C@@H](N)CO)C(C)C)C(=O)N[C@H](C(=O)N1CCC[C@H]1C(=O)N[C@@H](C)C(=O)N1CCC[C@H]1C(=O)N[C@@H](C)C(=O)N[C@@H](CO)C(=O)O)[C@@H](C)O [FGF23^180-205] (H-SAEDDSERDPLNVLKPRARMTPAPAS-OH; N-terminus and C-terminus assumed) | neither of the two FGF23 C-terminal peptides altered phosphate uptake | similar, albeit less potent antagonistic effect |
|  |  | FGF23^180-251: 72-amino acid C-terminal tail of human FGF23 (S180 to I251), expressed in E. coli (protein, listed as Homo sapiens) SAEDDSERDPLNVLKPRARMTPAPASCSQELPSAEDNSPMASDPLGVVRGGRVNTHAGGTGPEGCRPFAKFI | neither of the two FGF23 C-terminal peptides altered phosphate uptake |  |
|  | 1 nM | FGF23^28-251: human FGF23 (A28 to I251), bioactive full-length ligand expressed in E. coli (protein, listed as Homo sapiens) ASPLLGSSWGGLIHLYTATARNSYHLQIHKNGHVDGAPHQTIYSALMIRSEDAGFVVITGVMSRRYLCMDFRGNIFGSHYFDPENCRFQHQTLENGYDVYHSPQYHFLVSLGRAKRAFLPGMNPPPYSQFLSRRNEIPLIHFNTPIPRRHTRSAEDDSERDPLNVLKPRARMTPAPASCSQELPSAEDNSPMASDPLGVVRGGRVNTHAGGTGPEGCRPFAKFI |  |  |
